From the supplement of paper PMC11451515

Tested on: SEM cells
Assay: cell viability relative to DMSO control; higher = less cytotoxic
Conditions: 48 h
Method in brief: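 Before seeding, each leukemia line was adapted for at least four passages in each medium. NOMO1 or SEM cells (500 cells/well) and P12-Ichikawa cells (1000 cells/well) went into 1536-well plates at 5 μl, then received library compounds in DMSO by pin dosing across 11 threefold concentrations, 47 μM to 0.79 nM. Readout was CellTiter-Glo One luminescence after 48 h at 37°C, and viability is given as a per-plate percentage of DMSO wells, with cell-free wells as background.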

[1] = HPLM + 10% dialyzed FBS, 0.000781 µM
[2] = HPLM + 10% dialyzed FBS, 0.00234 µM
[3] = HPLM + 10% dialyzed FBS, 0.00702 µM
[4] = HPLM + 10% dialyzed FBS, 0.0211 µM
[5] = HPLM + 10% dialyzed FBS, 0.0632 µM
[6] = HPLM + 10% dialyzed FBS, 0.19 µM
[7] = HPLM + 10% dialyzed FBS, 0.569 µM
[8] = HPLM + 10% dialyzed FBS, 1.71 µM
[9] = HPLM + 10% dialyzed FBS, 5.12 µM
[10] = HPLM + 10% dialyzed FBS, 15.4 µM
[11] = HPLM + 10% dialyzed FBS, 46.1 µM
[12] = RPMI 5 mM glucose + 10% FBS, 0.000781 µM
[13] = RPMI 5 mM glucose + 10% FBS, 0.00234 µM
[14] = RPMI 5 mM glucose + 10% FBS, 0.00702 µM
[15] = RPMI 5 mM glucose + 10% FBS, 0.0211 µM
[16] = RPMI 5 mM glucose + 10% FBS, 0.0632 µM
[17] = RPMI 5 mM glucose + 10% FBS, 0.19 µM
[18] = RPMI 5 mM glucose + 10% FBS, 0.569 µM
[19] = RPMI 5 mM glucose + 10% FBS, 1.71 µM
[20] = RPMI 5 mM glucose + 10% FBS, 5.12 µM
[21] = RPMI 5 mM glucose + 10% FBS, 15.4 µM
[22] = RPMI 5 mM glucose + 10% FBS, 46.1 µM
[23] = RPMI 5 mM glucose + 10% dialyzed FBS, 0.000781 µM
[24] = RPMI 5 mM glucose + 10% dialyzed FBS, 0.00234 µM
[25] = RPMI 5 mM glucose + 10% dialyzed FBS, 0.00702 µM
[26] = RPMI 5 mM glucose + 10% dialyzed FBS, 0.0211 µM
[27] = RPMI 5 mM glucose + 10% dialyzed FBS, 0.0632 µM
[28] = RPMI 5 mM glucose + 10% dialyzed FBS, 0.19 µM
[29] = RPMI 5 mM glucose + 10% dialyzed FBS, 0.569 µM
[30] = RPMI 5 mM glucose + 10% dialyzed FBS, 1.71 µM
[31] = RPMI 5 mM glucose + 10% dialyzed FBS, 5.12 µM
[32] = RPMI 5 mM glucose + 10% dialyzed FBS, 15.4 µM
[33] = RPMI 5 mM glucose + 10% dialyzed FBS, 46.1 µM

| SMILES | cell viability [1] | cell viability [2] | cell viability [3] | cell viability [4] | cell viability [5] | cell viability [6] | cell viability [7] | cell viability [8] | cell viability [9] | cell viability [10] | cell viability [11] | cell viability [12] | cell viability [13] | cell viability [14] | cell viability [15] | cell viability [16] | cell viability [17] | cell viability [18] | cell viability [19] | cell viability [20] | cell viability [21] | cell viability [22] | cell viability [23] | cell viability [24] | cell viability [25] | cell viability [26] | cell viability [27] | cell viability [28] | cell viability [29] | cell viability [30] | cell viability [31] | cell viability [32] | cell viability [33] |
| --- | --- | --- | --- | --- | --- | --- | --- | --- | --- | --- | --- | --- | --- | --- | --- | --- | --- | --- | --- | --- | --- | --- | --- | --- | --- | --- | --- | --- | --- | --- | --- | --- | --- |
| CC(NC1=CC=CC=C1)C\2=C\C(=C/N3C(=O)\C=C(/N=C23)N4CCOCC4)C (stereo unspecified) | 96.9% | 86.4% | 108% | 99.1% | 101% | 108% | 107% | 108% | 103% | 97.3% | 86.5% | 99.1% | 101% | 117% | 126% | 103% | 101% | 128% | 119% | 117% | 101% | 12.2% | 95.3% | 79.7% | 113% | 106% | 94.3% | 73.8% | 101% | 110% | 98.3% | 87.3% | 53.8% |
| COc1cc2nc(N(C)CCCNC(=O)C3CCCO3)nc(N)c2cc1OC (stereo unspecified) | 53.9% | 66.5% | 58.9% | 80.3% | 84.7% | 84.9% | 75.5% | 89.3% | 74.2% | 79.2% | 73.3% | 60.7% | 61.4% | 64.1% | 71.7% | 87.1% | 102% | 82.9% | 75.3% | 73.4% | 76.4% | 62.2% | 69.7% | 67.7% | 69.5% | 97.7% | 89% | 93.7% | 74.1% | 87.3% | 75% | 77.4% | 67.2% |
| COC1=CC=CC2=C1C(=NC(=N2)C3=CC=CS3)NN4C(=O)\C=C(C)/C4=O | 86.8% | 96.3% | 101% | 87.5% | 72.4% | 69.1% | 42.5% | 29.7% | 11.3% | 2.5% | 2.94% | 90.3% | 99% | 93.5% | 92.2% | 81.9% | 75.5% | 59.5% | 36% | 5.68% | 1.13% | 2.39% | 87.3% | 87.2% | 88.5% | 78.1% | 76.3% | 83.1% | 57.4% | 41.3% | 5.19% | 1.14% | 2.21% |
| COc1cnc(N[S+](=O)([O-])c2ccc(N)cc2)nc1 | 75.9% | 96.2% | 85.7% | 86.1% | 93.2% | 94.6% | 91.9% | 93.1% | 109% | 102% | 103% | 94.9% | 97.4% | 99.7% | 104% | 101% | 107% | 113% | 97.3% | 107% | 102% | 105% | 75.9% | 91.6% | 106% | 104% | 93.7% | 107% | 108% | 115% | 117% | 106% | 118% |
| CC[C@H](CC[C@@H](C)[C@H]1CC[C@H]2[C@@H]3C\C=C/4C[C@@H](O)CC[C@]4(C)[C@H]3CC[C@]12C)C(C)C | 119% | 130% | 123% | 139% | 129% | 128% | 114% | 116% | 116% | 122% | 95.8% | 117% | 114% | 126% | 119% | 131% | 116% | 124% | 110% | 115% | 114% | 92.3% | 124% | 144% | 122% | 115% | 147% | 126% | 125% | 129% | 138% | 121% | 94.6% |
| Cc1c(CCOc2ccc(C(=O)O)cc2)c2cc(Cl)ccc2n1C(c1ccccc1)c1ccccc1 | 112% | 118% | 104% | 113% | 109% | 105% | 108% | 114% | 105% | 108% | 79.3% | 110% | 108% | 104% | 118% | 94.3% | 104% | 94.9% | 102% | 106% | 106% | 92.7% | 114% | 110% | 97.1% | 109% | 95.9% | 109% | 111% | 104% | 107% | 95.3% | 92.5% |
| OC(=O)C1=CC=C(NC2=NC3=C(C\N=C(/C4=CC(=CC=C34)Cl)C5=C(F)C=CC=C5F)C=N2)C=C1 | 88.5% | 98.5% | 87.5% | 97.9% | 101% | 96% | 114% | 65.8% | 59.7% | 36.9% | 40.3% | 96% | 93% | 113% | 99.9% | 109% | 91% | 109% | 60.2% | 37.3% | 28.4% | 23.2% | 88.6% | 98.5% | 86% | 105% | 90.8% | 95.7% | 107% | 58.6% | 39% | 28.4% | 32.2% |
